Data set [1] concerns the target T1, VEGFR-3 (Mus musculus, UniProt P35917).
T1 construct: expressed in transfected cells; host or cells: HEK293T (inferred from the general description of the cellular assay)
Briefly: Cellular VEGFR-3 autophosphorylation assay, mouse receptor. Format: cell-based. The note with it: read-out: IC50 in cellular assays, VEGFR-3 autophosphorylation, mouse receptor. The procedure: (§1) Transfection of HEK293T cells and Ba/F3 cells with VEGFR-1-Flag, VEGFR-2-Flag or VEGFR-3-Flag expression constructs was performed using Fugene-6 (Roche) as per manufacturer’s protocol. Briefly, Fugene-6 was pre-incubated with Opti-Mem (Gibco) before adding DNA. After 24 h, media was replaced with serum-free culture media containing 0.2 % BSA. On the next day, cells were incubated for 1 h in 1 mM orthovanadate, harvested, dissociated and distributed at 4 x 10^5 cells in 5 mL for HEK-VEGFR-1 and HEK-VEGFR-3, and 5 x 10^4 cells per 5 mL for HEK VEGFR-2 in the presence of EVT801 or SAR401849. After 30 min, the reaction was stopped by the addition of cold PBS supplemented with 1 mM orthovanadate. Cells were then lysed with 150 μl of RIPA buffer for 15 min at 4°C, then centrifuged for 10 min at 10,000 g. Supernatants (75 μl) were distributed in duplicate on 96 well plates that were precoated with the anti-flag, and left for 1 h at room temperature. After 3 washes, the anti-phosphotyrosine conjugated to the HRP was added and incubated for 1 h at room temperature. Wells were then washed 3 times with TBS buffer containing 0.5 % Tween-20 and 2 mM MgCl2. The reaction was stopped with 50 μL of 2 N H2SO4, and the signal was read with Envision at the wavelengths of 485 nm and 530 nm.

Data set [2] relates to ERK phosphorylation. The data set is described as follows: Immunoblot of phosphorylated ERK in NCI-H1703 cells. Format: cell-based, human. Conditions: 1 μmol/L. As to the method: For immunoblotting, 2 x 10^5 cells were scraped and lysed with RIPA lysis buffer (Sigma, R0278), supplemented with protease inhibitor cocktail (Ozyme, 5872S). After separation by SDS-PAGE, proteins were transferred to PVDF membranes. Membranes were blocked with 5 % milk in TBS-T for saturation step and incubated with phosphorylated ERK (CellSignaling, 4377, 1:1000) or GAPDH (CellSignaling, 5174, 1:1000) antibodies overnight, followed by an anti-mouse IgG, secondary antibody HRP linked (CellSignaling, 7076, 1:2000) in antibodies buffer (TBS-Tween 0.05 %, 0.1 % BSA) for 2 h. Membranes were washed 3 x 10 min in TBS before adding chemiluminescent substrate (Supersignal West Pico Plus, 54580, ThermoFisher) and imaged by the Pxi6 station (Ozyme).

The nature of data set [3]: Pharmacokinetics in rats. Format: in vivo. Conditions: rat, plasma; Sprague-Dawley rats, 10 mg/kg; read-out: T1/2 in plasma (converted). As to the method:
Plasma samples and tumor homogenates were mixed with the precipitant solution (acetonitrile containing internal standard). The supernatant (180 µL) was transferred in a 96-well plate and 5 µL were injected. EVT801 and its main metabolite were quantified by LC-MS/MS following standard conditions.

The nature of data set [4]: Blood pressure in telemetered rat model of hypertension. The format is in vivo. Conditions: dose as high as 500 mg/kg, single oral administration. The procedure:
Supplementary Figure 8. EVT801 and sorafenib show opposing effects on blood pressure in rats. (A) Monitoring of the blood pressure over 24 h after single oral administration of 100 mg/kg EVT801 or 500 mg/kg of EVT801, compared to animals treated with vehicle. (B) Monitoring of the blood pressure over 24 h after single oral administration of 10 mg/kg sorafenib, 30 mg/kg sorafenib or 100 mg/kg of sorafenib, compared to animals treated with vehicle.

In data set [5] the target is VEGFR-2 (Homo sapiens, UniProt P35968). The data set is described as follows: Biochemical kinase assay (in vitro assay), VEGFR-2. Further details: expressed in transfected cells; host or cells: HEK293T. The note with it: read-out: IC50 in biochemical assays, VEGFR-2. The procedure:
Sigma protein kinase assay kits were used. 125 μL per well of Poly-Glu-Tyr (PGT) solution (250 μg/mL of PGT in PBS without Ca^2+, Mg^2+ and sodium bicarbonate) was added in a 96-well plate and overnight incubation was performed at 37 °C. The day after, coating solution was removed and wells were washed with 300 μL of PBS-Tween-20 0.05 %. The washing buffer was removed and wells were dried for 2 h at 37 °C. 90 μL of the kinase buffer was supplemented with ATP (30 μM for VEGFR-1 and VEGFR-3, and 15 μM for VEGFR-2), and the compound (EVT801 or SAR401849 at the indicated concentration or 1 % DMSO for the vehicle control). The phosphorylation reaction was initiated by the addition of 20 μL of kinase buffer without ATP supplemented with 100 ng of the tyrosine kinase (or without tyrosine kinase as control). Plates were incubated with gentle agitation at room temperature for 30 min. After 3 washes with 300 μL of washing buffer, 100 μL of phosphotyrosine specific monoclonal antibody conjugated to HRP (1:30,000) was added onto the phosphorylated PGT. Plates were incubated for 30 min at room temperature under gentle agitation. Then, 3 washes with 300 μL of washing buffer were performed. […] After 7 min at room temperature, the reaction was stopped by addition of 100 μL of […], and absorbance was determined with an Endvision spectrophotometer at 492 nm.

Data set [6] addresses T2, VEGFR-3 (Homo sapiens, UniProt P35916). Briefly: Cellular autophosphorylation assay, HEK293 cells transiently expressing VEGFR-3. Further details: expressed in transfected cells; host or cells: HEK293T. The note with it: read-out: IC50 in cellular assays, VEGFR-3 autophosphorylation. The format is cell-based. As to the method: as §1
Target sequence in this assay (P35916 25-1363): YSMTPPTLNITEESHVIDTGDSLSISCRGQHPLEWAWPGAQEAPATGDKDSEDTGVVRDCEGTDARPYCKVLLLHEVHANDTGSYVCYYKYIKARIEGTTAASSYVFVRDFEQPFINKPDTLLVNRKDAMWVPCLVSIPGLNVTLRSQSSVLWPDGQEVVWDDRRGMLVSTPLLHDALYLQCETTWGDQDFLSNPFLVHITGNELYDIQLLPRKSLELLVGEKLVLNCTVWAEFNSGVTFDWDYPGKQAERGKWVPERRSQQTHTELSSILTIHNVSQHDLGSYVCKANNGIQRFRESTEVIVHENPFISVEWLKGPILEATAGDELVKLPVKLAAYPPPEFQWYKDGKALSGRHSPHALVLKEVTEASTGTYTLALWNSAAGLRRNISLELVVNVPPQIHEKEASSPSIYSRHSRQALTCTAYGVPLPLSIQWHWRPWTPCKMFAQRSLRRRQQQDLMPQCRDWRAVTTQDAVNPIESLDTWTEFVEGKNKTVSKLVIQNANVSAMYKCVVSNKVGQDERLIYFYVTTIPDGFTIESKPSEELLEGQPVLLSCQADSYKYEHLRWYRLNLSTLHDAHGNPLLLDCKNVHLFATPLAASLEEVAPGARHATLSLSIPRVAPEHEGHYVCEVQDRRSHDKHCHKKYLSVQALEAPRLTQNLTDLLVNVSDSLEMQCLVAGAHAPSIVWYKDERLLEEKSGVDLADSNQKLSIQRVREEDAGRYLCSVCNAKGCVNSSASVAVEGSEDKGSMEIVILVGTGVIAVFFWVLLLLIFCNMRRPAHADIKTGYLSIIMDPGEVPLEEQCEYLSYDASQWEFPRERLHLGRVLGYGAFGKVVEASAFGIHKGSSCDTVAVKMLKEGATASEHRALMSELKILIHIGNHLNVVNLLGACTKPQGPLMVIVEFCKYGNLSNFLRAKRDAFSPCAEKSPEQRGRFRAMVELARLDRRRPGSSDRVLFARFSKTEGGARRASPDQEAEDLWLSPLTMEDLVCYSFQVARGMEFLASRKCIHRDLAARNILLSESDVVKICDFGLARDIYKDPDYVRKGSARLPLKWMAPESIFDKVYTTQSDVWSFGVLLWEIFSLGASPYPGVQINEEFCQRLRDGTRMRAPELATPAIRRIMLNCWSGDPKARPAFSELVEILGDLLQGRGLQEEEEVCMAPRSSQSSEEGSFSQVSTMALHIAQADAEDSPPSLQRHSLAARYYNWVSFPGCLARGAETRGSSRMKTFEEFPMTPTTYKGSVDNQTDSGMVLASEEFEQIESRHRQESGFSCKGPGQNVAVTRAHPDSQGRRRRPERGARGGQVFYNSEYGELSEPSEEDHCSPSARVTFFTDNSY
Data set [7] deals with T2, VEGFR-3. Briefly: Viability of Ba/F3 cells dependent on VEGFR-3. The format is cell-based. Further details: fusion proteins consisting of constructs for IL-3 independent survival and either VEGFR-2 or VEGFR-3 kinase domains; expressed in transfected cells; host or cells: Ba/F3 (stably transduced). As to the method: Ba/F3 cells were transduced and selected to stably express fusion proteins consisting of constructs for IL-3 independent survival and either VEGFR-2 or VEGFR-3 kinase domains or without the kinase domain. Proliferation and survival of cell lines was dependent on expression of the transcript. Cells in logarithmic-phase growth were harvested and 5 x 10^3 cells were distributed into each well of a 384-well plate in 50 µL of medium. Then, 50 nL of EVT801, SAR401849 or their vehicle solvent were added to appropriate wells. After 48 h, viability was determined by addition of 10 µL CellTiterGlo reagent (Promega). Luminescence was determined as relative light units (RLU) in counts per second.
Target sequence in this assay (P35916 845-1173 limits assumed, species assumed): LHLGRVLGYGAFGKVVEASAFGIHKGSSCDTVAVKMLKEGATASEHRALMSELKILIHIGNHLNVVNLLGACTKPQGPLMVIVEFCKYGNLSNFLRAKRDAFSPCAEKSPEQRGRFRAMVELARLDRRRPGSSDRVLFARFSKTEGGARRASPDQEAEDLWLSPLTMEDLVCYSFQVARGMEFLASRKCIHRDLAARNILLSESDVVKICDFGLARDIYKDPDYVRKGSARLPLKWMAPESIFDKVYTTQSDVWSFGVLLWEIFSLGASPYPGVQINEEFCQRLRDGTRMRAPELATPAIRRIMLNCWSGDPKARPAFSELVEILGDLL

Sequence of VEGFR-2 (P35968 20-1356): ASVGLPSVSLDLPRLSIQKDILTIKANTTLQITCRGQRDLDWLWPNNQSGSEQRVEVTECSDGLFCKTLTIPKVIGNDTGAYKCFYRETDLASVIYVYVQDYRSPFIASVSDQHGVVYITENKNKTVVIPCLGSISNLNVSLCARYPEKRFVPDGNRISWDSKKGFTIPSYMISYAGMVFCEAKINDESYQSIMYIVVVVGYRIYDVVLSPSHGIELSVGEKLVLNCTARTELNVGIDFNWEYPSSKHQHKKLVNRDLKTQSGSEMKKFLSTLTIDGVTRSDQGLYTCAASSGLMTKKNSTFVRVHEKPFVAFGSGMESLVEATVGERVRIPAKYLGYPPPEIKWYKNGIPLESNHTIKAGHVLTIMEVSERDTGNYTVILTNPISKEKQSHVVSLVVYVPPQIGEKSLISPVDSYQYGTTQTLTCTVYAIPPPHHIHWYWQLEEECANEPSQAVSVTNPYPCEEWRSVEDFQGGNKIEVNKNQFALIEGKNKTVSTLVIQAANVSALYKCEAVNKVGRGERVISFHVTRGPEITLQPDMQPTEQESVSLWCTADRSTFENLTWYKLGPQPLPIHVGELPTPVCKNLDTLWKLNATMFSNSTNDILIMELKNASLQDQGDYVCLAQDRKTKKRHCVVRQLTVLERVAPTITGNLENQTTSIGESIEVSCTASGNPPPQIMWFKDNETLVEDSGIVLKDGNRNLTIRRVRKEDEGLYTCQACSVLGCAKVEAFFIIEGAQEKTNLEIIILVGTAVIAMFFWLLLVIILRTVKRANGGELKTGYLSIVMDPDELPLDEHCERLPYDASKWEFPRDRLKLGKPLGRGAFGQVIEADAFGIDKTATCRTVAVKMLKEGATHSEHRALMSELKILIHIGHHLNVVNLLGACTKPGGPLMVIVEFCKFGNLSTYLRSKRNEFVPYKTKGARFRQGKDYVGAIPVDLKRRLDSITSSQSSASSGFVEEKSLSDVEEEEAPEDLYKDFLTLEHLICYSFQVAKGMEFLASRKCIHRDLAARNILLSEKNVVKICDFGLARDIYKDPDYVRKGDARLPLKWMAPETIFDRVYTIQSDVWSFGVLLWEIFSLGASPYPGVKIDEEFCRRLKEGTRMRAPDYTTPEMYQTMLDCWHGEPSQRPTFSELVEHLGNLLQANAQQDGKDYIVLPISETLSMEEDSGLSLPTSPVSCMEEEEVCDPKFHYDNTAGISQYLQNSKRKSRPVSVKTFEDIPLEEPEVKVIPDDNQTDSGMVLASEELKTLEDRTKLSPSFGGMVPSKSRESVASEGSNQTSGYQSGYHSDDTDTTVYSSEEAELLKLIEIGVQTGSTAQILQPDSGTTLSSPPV
T1 sequence (P35917 25-1363): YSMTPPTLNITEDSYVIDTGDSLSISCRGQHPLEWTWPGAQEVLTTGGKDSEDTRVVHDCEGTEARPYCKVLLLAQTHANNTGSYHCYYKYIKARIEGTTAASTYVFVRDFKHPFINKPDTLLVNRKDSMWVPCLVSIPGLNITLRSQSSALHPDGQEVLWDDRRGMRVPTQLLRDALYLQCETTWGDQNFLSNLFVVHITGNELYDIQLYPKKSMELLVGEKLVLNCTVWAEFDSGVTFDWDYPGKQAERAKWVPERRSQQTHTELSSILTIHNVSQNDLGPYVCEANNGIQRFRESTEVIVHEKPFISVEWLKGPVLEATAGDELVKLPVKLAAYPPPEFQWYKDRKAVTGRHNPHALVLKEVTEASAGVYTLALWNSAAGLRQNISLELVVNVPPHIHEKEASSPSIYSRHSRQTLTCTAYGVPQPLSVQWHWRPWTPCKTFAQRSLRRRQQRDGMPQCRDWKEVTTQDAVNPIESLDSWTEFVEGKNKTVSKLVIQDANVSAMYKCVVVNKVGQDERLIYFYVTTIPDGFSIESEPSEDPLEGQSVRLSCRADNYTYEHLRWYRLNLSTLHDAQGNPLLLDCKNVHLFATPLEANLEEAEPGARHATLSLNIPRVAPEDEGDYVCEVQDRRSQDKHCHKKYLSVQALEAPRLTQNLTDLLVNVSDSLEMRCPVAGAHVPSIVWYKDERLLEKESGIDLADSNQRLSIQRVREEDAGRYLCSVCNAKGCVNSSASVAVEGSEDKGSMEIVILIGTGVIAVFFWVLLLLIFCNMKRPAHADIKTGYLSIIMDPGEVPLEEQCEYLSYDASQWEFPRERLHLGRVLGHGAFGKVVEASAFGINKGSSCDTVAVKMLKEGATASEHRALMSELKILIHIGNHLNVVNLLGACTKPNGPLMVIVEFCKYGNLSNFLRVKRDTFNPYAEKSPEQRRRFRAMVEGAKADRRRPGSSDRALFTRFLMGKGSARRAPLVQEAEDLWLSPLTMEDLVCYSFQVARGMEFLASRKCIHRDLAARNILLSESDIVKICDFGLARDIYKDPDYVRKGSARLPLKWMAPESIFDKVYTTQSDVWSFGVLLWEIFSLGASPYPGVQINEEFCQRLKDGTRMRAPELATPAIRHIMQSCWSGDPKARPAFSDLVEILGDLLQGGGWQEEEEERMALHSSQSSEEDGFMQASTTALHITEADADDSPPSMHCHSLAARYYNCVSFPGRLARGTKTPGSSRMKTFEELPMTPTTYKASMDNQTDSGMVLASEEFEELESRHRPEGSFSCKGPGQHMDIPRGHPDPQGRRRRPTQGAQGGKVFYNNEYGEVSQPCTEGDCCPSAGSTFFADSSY

Broadly, the IC50 is the midpoint of a concentration-inhibition curve. As to `CCn1c(N)c(-c2ncc[nH]2)c(=O)c2ccc(C#C[C@@](C)(O)COC)nc21` [EVT801], the IC50 in data set [1] turned out to be 151 nM; in data set [5], 130 nM; in data set [6], 39 nM; in data set [7], 24 nM. Further, in data set [2], the “reduction of ERK phosphorylation induced by VEGF-C and VEGF-D” value is “better than pazopanib”. In data set [3], the half-life was 2.4 h. The “effect on blood pressure” value in data set [4] is given as “did not increase blood pressure”.

Source of the values: article PMC10035370, “Targeting Tumor Angiogenesis with the Selective VEGFR-3 Inhibitor EVT801 in Combination with Cancer Immunotherapy” (Cancer Research Communications, 2022).
